ChEMBL document CHEMBL1136711, “Synthesis and SAR of bicyclic heteroaryl hydroxamic acid MMP and TACE inhibitors” (Bioorg Med Chem Lett, 2003)

Tests used:
[1] = target: Matrix metalloproteinase-9 (Homo sapiens, UniProt P14780); experiment: Inhibitory activity against matrix metalloprotease 9 (MMP-9).
[2] = target: Collagenase 3 (Homo sapiens, UniProt P45452); experiment: Inhibitory activity against matrix metalloprotease 13 (MMP-13).
[3] = target: Disintegrin and metalloproteinase domain-containing protein 17 (Homo sapiens, UniProt P78536); experiment: Inhibitory activity against TACE.
Sequence of Disintegrin and metalloproteinase domain-containing protein 17 (P78536 whole entry, the tested form may be a part): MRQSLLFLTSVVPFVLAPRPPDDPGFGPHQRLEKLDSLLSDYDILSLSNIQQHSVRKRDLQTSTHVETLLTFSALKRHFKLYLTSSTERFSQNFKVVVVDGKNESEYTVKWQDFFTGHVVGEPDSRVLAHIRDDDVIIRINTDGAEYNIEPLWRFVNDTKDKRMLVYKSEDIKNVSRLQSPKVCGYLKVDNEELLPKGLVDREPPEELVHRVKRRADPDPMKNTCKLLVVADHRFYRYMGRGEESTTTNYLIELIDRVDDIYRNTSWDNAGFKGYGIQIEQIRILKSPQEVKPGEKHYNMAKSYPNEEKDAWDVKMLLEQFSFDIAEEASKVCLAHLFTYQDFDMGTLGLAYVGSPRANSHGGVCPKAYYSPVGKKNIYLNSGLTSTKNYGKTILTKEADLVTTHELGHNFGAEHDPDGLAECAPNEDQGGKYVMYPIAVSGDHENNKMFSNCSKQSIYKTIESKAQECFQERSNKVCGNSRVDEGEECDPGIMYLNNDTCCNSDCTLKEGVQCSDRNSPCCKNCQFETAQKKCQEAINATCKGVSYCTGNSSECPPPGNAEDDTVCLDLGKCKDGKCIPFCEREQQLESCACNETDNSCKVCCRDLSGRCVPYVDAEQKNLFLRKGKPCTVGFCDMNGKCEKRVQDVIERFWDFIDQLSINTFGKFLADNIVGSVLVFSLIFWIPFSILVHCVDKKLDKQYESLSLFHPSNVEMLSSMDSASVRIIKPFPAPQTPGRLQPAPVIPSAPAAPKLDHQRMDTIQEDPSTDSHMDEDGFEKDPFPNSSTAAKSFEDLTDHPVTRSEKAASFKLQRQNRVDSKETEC

[4] = target: T1, Interstitial collagenase (Homo sapiens, UniProt P03956); experiment: Inhibitory activity against matrix metalloprotease 1 (MMP-1).
T1 sequence (P03956 whole entry): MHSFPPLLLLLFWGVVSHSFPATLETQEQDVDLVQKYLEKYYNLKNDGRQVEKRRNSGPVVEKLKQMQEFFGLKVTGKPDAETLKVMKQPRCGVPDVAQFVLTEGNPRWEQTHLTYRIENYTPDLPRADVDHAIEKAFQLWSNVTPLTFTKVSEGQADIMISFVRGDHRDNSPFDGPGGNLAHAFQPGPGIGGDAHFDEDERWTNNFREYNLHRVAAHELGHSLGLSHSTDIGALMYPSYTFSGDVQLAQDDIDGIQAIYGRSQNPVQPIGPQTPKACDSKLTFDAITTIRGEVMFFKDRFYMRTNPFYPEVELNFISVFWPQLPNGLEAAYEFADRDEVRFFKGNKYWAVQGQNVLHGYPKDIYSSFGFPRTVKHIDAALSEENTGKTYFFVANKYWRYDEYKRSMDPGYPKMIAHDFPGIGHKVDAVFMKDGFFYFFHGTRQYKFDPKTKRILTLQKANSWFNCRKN

[5] = species: Bos taurus; experiment: Ex vivo inhibition of cartilage degradation at 100 nM concentration in the bovine articular cartilage explant assay; type: functional; conditions: Cartilage tissue
[6] = system: Rattus norvegicus; experiment: In vivo inhibition of cartilage degradation at 50 mpk po bid in the rat sponge-wrapped cartilage implant model; type: functional
[7] = system: Mus musculus; experiment: In vivo inhibition of MMP-13 at 50 mpk po 1 hr after dosing in the mouse dialysis tubing implant assay; type: functional
[8] = system: THP-1; experiment: In vitro inhibition of TNF-alpha release at a concentration of 3 uM by using THP cellular assay; type: functional, cell-based; conditions: Homo sapiens
[9] = system: Mus musculus; experiment: In vivo inhibition of MMP-13 at 25 mpk po 1 hr after dosing in the mouse dialysis tubing implant assay; type: functional

Sequence of Matrix metalloproteinase-9 (P14780 whole entry): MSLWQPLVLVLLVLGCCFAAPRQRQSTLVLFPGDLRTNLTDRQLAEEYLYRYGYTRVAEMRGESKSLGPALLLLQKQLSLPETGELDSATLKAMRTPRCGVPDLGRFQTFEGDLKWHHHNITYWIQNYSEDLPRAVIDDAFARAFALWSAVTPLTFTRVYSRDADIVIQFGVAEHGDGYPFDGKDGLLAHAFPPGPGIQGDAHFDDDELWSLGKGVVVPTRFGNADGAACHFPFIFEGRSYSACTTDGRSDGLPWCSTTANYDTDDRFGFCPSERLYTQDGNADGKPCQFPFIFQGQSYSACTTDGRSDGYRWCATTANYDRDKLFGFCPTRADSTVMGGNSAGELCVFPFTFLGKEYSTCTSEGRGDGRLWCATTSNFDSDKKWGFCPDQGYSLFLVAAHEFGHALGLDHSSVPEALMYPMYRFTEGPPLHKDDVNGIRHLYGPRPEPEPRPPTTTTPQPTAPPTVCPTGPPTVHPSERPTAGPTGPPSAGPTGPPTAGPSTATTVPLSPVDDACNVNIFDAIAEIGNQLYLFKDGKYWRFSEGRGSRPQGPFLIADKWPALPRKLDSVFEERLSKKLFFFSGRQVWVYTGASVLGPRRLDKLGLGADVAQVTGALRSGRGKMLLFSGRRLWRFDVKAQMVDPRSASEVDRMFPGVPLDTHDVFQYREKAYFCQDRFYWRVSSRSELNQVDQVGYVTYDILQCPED

| SMILES | IC50 [1] [nM] | IC50 [2] [nM] | IC50 [3] [nM] | IC50 [4] [nM] | further results |
| --- | --- | --- | --- | --- | --- |
| COc1ccc(S(=O)(=O)N(Cc2cccnc2)c2c(C(=O)NO)cnc3c(I)cccc23)cc1 | 3 | 3 | 124 |  |  |
| Cc1nn(C)c2ncc(C(=O)NO)c(N(C)S(=O)(=O)c3ccc(Oc4ccc(Cl)cc4)cc3)c12 |  |  | 356 | 116 |  |
| COc1ccc(S(=O)(=O)N(Cc2cccnc2)c2c(C(=O)NO)cnc3cc(C(F)(F)F)ccc23)cc1 | 4 | 1 | 1000 |  |  |
| CN(c1c(C(=O)NO)cnc2ccccc12)S(=O)(=O)c1ccc(Oc2ccncc2)cc1 |  | 1 | 124 | 1010 | inhibition at 0.1 µM [5]: 42%; inhibition in vivo at 50 mg/kg [6]: 44%; inhibition in vivo at 50 mg/kg [7]: 90% |
| CC#CCOc1ccc(S(=O)(=O)N(C)c2c(C(=O)NO)cnc3c(OC)cccc23)cc1 |  | 9 |  |  |  |
| CC#CCOc1ccc(S(=O)(=O)N(C)c2c(C(=O)NO)cnc3c2c(C)nn3C)cc1 | 100 |  |  |  |  |
| O=C(NO)c1cnc2cc(C(F)(F)F)ccc2c1N(Cc1cccnc1)S(=O)(=O)c1ccc(-c2ccccc2)cc1 | 1160 |  | 124 |  |  |
| COc1ccc(S(=O)(=O)N(Cc2cccnc2)c2c(C(=O)NO)cnc3c2cnn3-c2ccccc2)cc1 | 6 | 20 | 435 |  |  |
| Cc1ccc(S(=O)(=O)N(Cc2cccnc2)c2c(C(=O)NO)cnc3cc(C(F)(F)F)ccc23)cc1 | > 1000 | > 1000 | > 1000 | > 1000 |  |
| Cc1nn(C)c2ncc(C(=O)NO)c(N(C)S(=O)(=O)c3ccc(F)cc3)c12 | 595 | 170 | > 1000 | 177 |  |
| CCCCOc1ccc(S(=O)(=O)N(C)c2c(C(=O)NO)cnc3c2c(C)nn3C)cc1 | 7 | 3 | 86 | 1920 |  |
| COc1ccc(S(=O)(=O)N(Cc2cccnc2)c2c(C(=O)NO)cnc3snc(C)c23)cc1 | 2 |  |  |  |  |
| CC#CCOc1ccc(S(=O)(=O)N(C)c2c(C(=O)NO)cnc3c(Br)cccc23)cc1 |  |  |  |  | inhibition [8]: 32% |
| COc1ccc(S(=O)(=O)N(Cc2ccccc2)c2c(C(=O)NO)cnc3ccc(C(F)(F)F)cc23)cc1 | 11 | 7 | > 1000 |  |  |
| COc1ccc(S(=O)(=O)N(Cc2ccccc2)c2c(C(=O)NO)cnc3ccc(Br)cc23)cc1 | 8 | 6 | > 1000 | 108 |  |
| CC#CCOc1ccc(S(=O)(=O)N(C)c2c(C(=O)NO)cnc3onc(C)c23)cc1 |  |  | 6 |  |  |
| COc1ccc(S(=O)(=O)N(Cc2cccnc2)c2c(C(=O)NO)cnc3c(-c4cccs4)cccc23)cc1 |  |  |  | 136 |  |
| COc1ccc(S(=O)(=O)N(C)c2c(C(=O)NO)cnc3c(Br)cccc23)cc1 |  |  | 296 |  |  |
| C=Cc1cccc2c(N(C)S(=O)(=O)c3ccc(OC)cc3)c(C(=O)NO)cnc12 | 5 | 5 | 205 | 200 |  |
| Cc1nn(C)c2ncc(C(=O)NO)c(N(C)S(=O)(=O)c3ccc(Oc4ccncc4)cc3)c12 | 2 |  | > 100 |  | inhibition at 0.1 µM [5]: 61%; inhibition in vivo at 25 mg/kg [9]: 54%; inhibition in vivo at 50 mg/kg [6]: 46% |
| COc1ccc(S(=O)(=O)N(Cc2ccccc2)c2c(C(=O)NO)cnc3cc(Br)ccc23)cc1 | 11 | 7 | > 1000 |  |  |
| COc1ccc(S(=O)(=O)N(Cc2cccnc2)c2c(C(=O)NO)cnc3c2c(C)nn3-c2ccccc2)cc1 |  |  |  | 115 |  |
